A short description of data set [1]: Half life in HIV1-infected patient. The format is ADME, organism-based. As to conditions: human, in vivo.
In data set [2] the test system is Human immunodeficiency virus 1. Briefly: Antiviral activity against HIV1 infected in MT4 cells. The format is functional, organism-based. As to conditions: Human immunodeficiency virus 1, MT4.
In data set [3] the test system is Human immunodeficiency virus 1. The data set can be described thus: Antiviral activity against HIV1 harboring reverse transcriptase K103N/Y181C mutant. The format is functional, organism-based.
Data set [4] deals with Human immunodeficiency virus 1. Briefly: Antiviral activity against HIV1 harboring reverse transcriptase Y181C mutant. The format is functional, organism-based.
Data set [5] deals with Human immunodeficiency virus 1. Briefly: Antiviral activity against HIV1 harboring reverse transcriptase K103N mutant. The format is functional, organism-based.
Data set [6] concerns Human immunodeficiency virus 1. Briefly: Antiviral activity against wild type HIV1. The format is functional, organism-based.
In data set [7] the test system is Human immunodeficiency virus 1. Briefly: Antiviral activity against HIV1 harboring reverse transcriptase L100I/K103N mutant. The format is functional, organism-based.
The subject of data set [8] is Human immunodeficiency virus 1. The data set can be described thus: Antiviral activity against HIV1 harboring reverse transcriptase Y188L mutant. The format is functional, organism-based.
The subject of data set [9] is Human immunodeficiency virus 1. Briefly: Antiviral activity against HIV1 harboring reverse transcriptase L100I mutant. The format is functional, organism-based.
Data set [10] in a line: Selectivity index, ratio of cytotoxic concentration for human MT4 cells to IC50 for HIV1 3B. The format is toxicity, cell-based. As to conditions: read-out: Selectivity Index.
Data set [11] relates to Human immunodeficiency virus 1. The data set can be described thus: Antiviral activity against HIV1 3B infected in MT4 cells. The format is functional, organism-based. The conditions noted are these: Human immunodeficiency virus 1, 3B.
Data set [12] relates to Human immunodeficiency virus 1. Briefly: Ratio of nevirapine EC50 to compound EC50 for HIV1. The format is functional.
Data set [13] can be described thus: Half life in plasma. The format is ADME, cell-free.
The subject of data set [14] is Human immunodeficiency virus 1. Briefly: Antiviral activity against HIV1 infected in human assessed as log reduction in viral load at 800 mg administered QD for 7 days measured on day 8 relative to placebo-control. The format is functional.
For data set [15], the system named is Human immunodeficiency virus 1. Briefly: Antiviral activity against HIV1 infected in human assessed as log reduction in viral load at 500 mg administered QD for 7 days measured on day 8 relative to placebo-control. The format is functional.
Data set [16] concerns Human immunodeficiency virus 1. The data set can be described thus: Antiviral activity against HIV1 infected in human assessed as log reduction in viral load at 750 mg administered QD for 7 days measured on day 8 relative to placebo-control. The format is functional.
For data set [17], the system named is Human immunodeficiency virus 1. Briefly: Antiviral activity against HIV1 3B infected in MT4 cells assessed as inhibition of virus-induced cytopathic effect after 5 days by MTT assay. The format is functional, organism-based. As to conditions: Human immunodeficiency virus 1, 3B, MT4, 120 h. For orientation: Damage to the host cells serves as the signal in cytopathic effect assays.

Data set [18] in a line: Half life in HIV-infected patient plasma. The format is ADME, organism-based. The conditions noted are these: human.
Data set [19] deals with Human immunodeficiency virus 1. The data set can be described thus: Antiviral activity against HIV1 infected in human assessed as viral copies at 25 to 150 mg. The format is functional.
Data set [20] has as its system Human immunodeficiency virus 1. The data set can be described thus: Antiviral activity against HIV1 infected in human assessed as log reduction in viral load at 25 to 150 mg administered QD for 7 days measured on day 8 relative to placebo-control. The format is functional.

Each structure is given as a SMILES string. In brackets after ≈: the same amount, converted by molar mass.

Data on 13 molecules can be found in ChEMBL document CHEMBL2169791, “Strategies for the design of HIV-1 non-nucleoside reverse transcriptase inhibitors: lessons from the development of seven representative paradigms” (J Med Chem, 2012).

For the molecule `O=C(CSc1nnc(Br)n1-c1ccc(C2CC2)c2ccccc12)Nc1ccc(C(=O)[O-])cc1Cl.[K+]`, the half-life in data set [1] was 11 h.

As to `Cc1cc(S(N)(=O)=O)ccc1NC(=O)COc1ccc(Cl)cc1C(=O)c1cc(F)cc(C(F)(F)F)c1`, the IC50 in data set [2] was determined as 0.5 nM.

`CCN(CC)CCOc1ccc(NC(=O)COc2ccccc2C(=O)c2ccc(OC)cc2)cc1` had an IC50 in data set [2] of 10 µg/mL.

As for `Cc1cc(C#N)cc(C)c1Oc1nc(Nc2ccc(C#N)cc2)ncc1Br`, the IC50 in [3] came out at 25 nM; in [4] it was 22 nM; in data set [5], 1.4 nM; in data set [6], 1.4 nM; in data set [7], 49 nM; in data set [8], 5.9 nM. For the same molecule, the IC50 in data set [9] was found to be 6.6 nM.

`CC(C)=CCN1Cc2cccc3[nH]c(=S)n(c23)C[C@@H]1C`: the selectivity ratio in data set [10] was found to be 31100. Further, in data set [11], it took 28 nM to reach half-maximal inhibition (IC50).

In the case of `Cc1cc(C#N)cc(C)c1Oc1ccnc(Nc2ccc(C#N)cc2)n1`, the IC50 in data set [3] was determined as 94 nM; in [4], 37 nM; in data set [5], 2.7 nM; in data set [6], 1.1 nM; in data set [7], 798 nM; in data set [8], 19 nM. The molecule further returned a half-maximal inhibitory concentration (IC50) in data set [9] of 73 nM.

Consider `CCN1c2ncc(CCOc3cc[n+]([O-])c4ccccc34)cc2C(=O)N(C)c2cccnc21` [BILR 355], for which, in data set [12], the “Ratio EC50” value is over 10. It took 0.00026 µg/mL (≈ 0.589 nM) to reach a half-maximal effect in [6] (EC50).

For `Cc1cc(C#N)cc(C)c1Oc1nc(Nc2ccc(C#N)cc2)nc(N)c1Br` [ETRAVIRINE], the IC50 was 4.3 nM in data set [3], under 10 nM in data set [6] and 19 nM in data set [7]. This molecule showed a half-life in data set [13] of 30 h.

As to `CO[P@](=O)(c1cc(C)cc(/C=C/C#N)c1)c1c(C(N)=O)[nH]c2ccc(Cl)cc12` [FOSDEVIRINE], the FC in [14] came to 2.1.

Regarding `CCc1nn(CCO)c(CC)c1Oc1cc(C#N)cc(C#N)c1` [LERSIVIRINE], the results for the FC in [15] and in [16] were 1.9 and 2, respectively.

For `CC(=O)c1ccc(C)cc1NC(C(N)=O)c1c(Cl)cccc1Cl` (centres undefined) [LOVIRIDE], the IC50 in data set [17] was determined as 13 nM.

Turning to `Cc1cc(/C=C/C#N)cc(C)c1Nc1ccnc(Nc2ccc(C#N)cc2)n1` [RILPIVIRINE], the half-life in data set [18] is 48 h. Also, the Activity in data set [19] was under 50 mL⁻¹. Moreover, in data set [20], the FC is listed as 1.199.

For the molecule `Cc1cn([C@H]2C[C@H](N=[N+]=[N-])[C@@H](CO)O2)c(=O)[nH]c1=O` [ZIDOVUDINE], the selectivity ratio in [10] amounted to 6200. The molecule further registered an IC50 in data set [11] of 1.5 nM.

For orientation: half-life means the time needed for the level to fall by half in the phase considered. High values mean slow decline, low ones rapid decline. What is called IC50 is the concentration at which inhibition is half-maximal. The term EC50 denotes the midpoint of the concentration-response curve.
